According to patent US12023329B2, “Methods for the treatment of diseases associated with activation of inflammasomes” (Chang Gung University, priority 2020, dated 2024):

Assays:
LPS-primed d-THP-1 cells [1] = experiment: Nigericin-induced pyroptotic LDH release; assay type: cell-based, Human; conditions: rebastinib 0.01-1 μM, 30 min, nigericin 5 μM 30 min
Method: (§1) Pyroptosis is a form of programmed cell death. In this process, immune cells recognize foreign danger signals within themselves, release pro-inflammatory cytokines, swell, burst, and die. In this example, the effects of the present compound on nigericin-induced pyroptotic cell death and LDH release were investigated, in which the pyroptosis phenomena was observed using Field Emission Scanning Electron Microscope, and LDH level was determined by enzymatic assay.

[2] = tested on: LPS/D-GalN-induced acute liver failure in mice; experiment: Animal model of LPS/D-GalN-induced acute liver failure; assay type: in vivo, mice (C57BL/6); conditions: for acute liver failure: liver bleeding and inflammation (gross liver morphology): rebastinib 5 or 10 mg/kg i.v. 1 hr before LPS (40 μg/kg)/D-GalN (400 mg/kg) i.p.
Method: (§2) C57BL/6 mice (7-10-week-old, each weighted about 20-25 g) were maintained in micro-isolator units on a standard laboratory diet. Animals were housed under humidity- and temperature-controlled conditions and the light/dark cycle was set at 12-hr intervals, maintained under specified and opportunistic pathogen-free conditions. All animal studies were conducted under protocol approved by the Animal Care and Use Committee of Chang Gung University (Taipei, Taiwan).
Mice were randomly divided into 4 groups. The test compound rebastinib (5 or 10 mg/Kg) or a control solvent (80% saline, 10% ethanol, 10% Tween-20) was injected through the tail vein of each mice. The mice were allowed to rest for 1 hr, then LPS ([…])/D-GalN (400 mg/Kg) was injected through abdominal space for 5 hr to induce acute liver failure. Blood samples and tissue samples were respectively collected. Blood samples were analyzed for their respective levels of LDH, AST, ALT, BUN, and CRE. The livers were fixed in 10% formalin for tissue section. The liver sections were stained with hematoxylin and eosin (H&E).
In this example, animal model of acute liver failure was used to investigate the effect of the present compound on acute liver failure. Briefly, animals were first subjected to LPS/D-GalN treatment (LPS: 40 […]) to create acute liver failure, then blood and tissue samples with or without treatment of the present compound were taken, which were then subjected to biochemistry and microscopy analysis.

LPS-primed d-THP-1 cells [3] = experiment: Nigericin-induced IL-1β secretion in LPS-primed d-THP-1 cells (ELISA); assay type: cell-based, Human; conditions: rebastinib 0.01-1 μM, 30 min pre-incubation, nigericin 5 μM 30 min, IL-1β in supernatant by ELISA
Method: (§3) Human monocytic cell line THP-1 was purchased from American Type Culture Collection (ATCC) and maintained in RPMI-1640 Medium supplemented with 10% fetal bovine serum (FBS), 1% antibiotic-antimycotic solution, 0.1% (3-mercaptoethanol ((3-ME), and phenol red indicator in an incubator at 37° C. with 5% CO2. The medium was changed every 2-3 days.
(§4) To induce differentiation, THP-1 cells (cell density was about 5×10^5/mL) was cultivated in a serum-free medium containing 100 nM of phorbol 12-myristate 13-acetate (PMA) for about 4 hr. Then, the PMA-containing medium was replaced with a fresh RPMI-1640 medium, and the cultivation was continued for another 2 days to allow the THP-1 cells to differentiate into macrophage-like cells, hereafter termed “d-THP-1 cells.”
(§5) d-THP1 cells were first treated with 100 ng/mL of lipopolysaccharide (LPS) for 3 hr, then LPS-containing medium was replaced by a fresh medium. […]
(§6) The level of IL-1β and IL-18 was independently determined by ELISA assay kit (R&D system) in accordance with the manufacturer's protocol. The level of […] and IL-18 was determined from the 450 and 540 nm absorbance measured by Multiskan GO multiplate reader. […]

LPS-primed d-THP-1 cells [4] = experiment: MSU-induced IL-1β secretion in LPS-primed d-THP-1 cells (ELISA); assay type: cell-based, Human; conditions: rebastinib 0.003-1 μM, 30 min pre-incubation, MSU 100 μg/ml 4 hr
Method: as §3, §4, §5, §6

LPS-primed d-THP-1 cells [5] = experiment: Nigericin-induced IL-18 secretion in LPS-primed d-THP-1 cells (ELISA); assay type: cell-based, Human; conditions: rebastinib 0.01-1 μM, 30 min pre-incubation, nigericin 5 μM 30 min
Method: as §3, §4, §5, §6

LPS-primed d-THP-1 cells [6] = experiment: Imiquimod-induced IL-1β secretion in LPS-primed d-THP-1 cells (ELISA); assay type: cell-based, Human; conditions: rebastinib 0.003-1 μM, 30 min pre-incubation, IMQ 100 μM 2 hr
Method: as §3, §4, §5, §6

LPS-primed d-THP-1 cells [7] = experiment: Nigericin-induced pyroptotic cell death observed by field emission scanning electron microscopy; assay type: cell-based, Human; conditions: rebastinib 1 μM or glibenclamide 50 μM, 30 min, nigericin 5 μM 30 min, SEM images
Method: d-THP-1 cells (treated with LPS, the tested compounds, and the stimulant as described above or untreated) were fixed, in sequence, by use of 4% paraformaldehyde and 2.5% glutaraldehyde, respectively for 10 min, washed with PBS, then reacted with osmium tetroxide (OsO4) for 30 min; the cells were thoroughly washed with distilled water, then incubated with tannic acid for 30 min. […] Repeated the 100% ethanol dehydration step 3 times. The specimens were then dried with a mixture of CO2 and ethanol supercritical condition using Critical Point Dryer (CPD) (LEICAME CPD 300). The dried specimens were subsequently fixed on an alumina platform, and sputted with gold ions (ion sputter, JEOL JFC-1100E, operated at 1-2 mA for 60 sec) before subjecting to observation under Field Emission Scanning Electron Microscope (FE-SEM).
as §1

LPS-primed d-THP-1 cells [8] = experiment: Nigericin-induced ASC speck formation (fluorescent microscopy); assay type: cell-based, Human; conditions: rebastinib 1 μM or glibenclamide 50 μM, 30 min, nigericin 5 μM 30 min, anti-ASC staining
Method: d-THP-1 cells (treated with LPS, the tested compound, and the stimulant as described above or untreated) were fixed by 4% paraformaldehyde, washed with PBS (3 times), treated with Triton-X-100 (0.1%) for 10 min, washed with PBS (3 times), added 5% BSA for 1 hr, then washed with PBS (3 times) before the primary antibody (anti-ASC) was added. The primary anti-ASC antibody labeled cells were incubated at 4° C. overnight, then was labeled with the secondary antibody at RT for 1 hr, washed with PBS (3 times), added Hoechst 33342, washed with PBS (3 times), added ProLong™ Gold antifade reagent, then photographed using Fluorescent Microscope (IX81 Olympus, with Lumen 200 Fluorescence Illumination System). A hallmark of inflammasome activation is the ASC speck, a micrometre-sized structure formed by the inflammasome adaptor protein ASC (apoptosis-associated speck-like protein containing a CARD), which consists of a pyrin domain (PYD) and a caspase recruitment domain (CARD). In this example, the effect of the present compound on nigericin-induced formation of ASC speck in LPS-primed d-THP-1 cells was observed using fluorescence microscope, and results are illustrated in FIG. 8.

LPS-induced ALI in mice = experiment: Animal model of LPS-induced acute lung injury (ALI); assay type: in vivo, mice (C57BL/6); conditions: rebastinib 10 mg/kg i.v. 1 hr before intra-tracheal LPS 2 mg/kg, lungs collected 5 hr later
Method: as §2
ALI was induced by intra-tracheal spray of 2 mg/kg LPS in 7-8 weeks old C57BL/6 mice. Mice were fasted overnight and then intravenously injected with 50 ul of rebastinib (10 mg/kg) or an equal volume of solvent (vehicle). After 1 hr, mice were instilled with an intra-tracheal spray of 2 mg/kg LPS (dissolved in 40 μl 0.9% saline) or 0.9% saline under anesthesia. 5 hr later, mice were sacrificed and the lungs were collected. The lungs were fixed in 10% formalin for tissue section. The lung sections were stained with hematoxylin and eosin (H&E).
In this example, animal model of ALI was used to investigate the effect of the present compound on ALI. Mice were intravenously injected with 50 ul of rebastinib (10 mg/kg) or an equal volume of solvent (vehicle). After 1 hr, mice were instilled with an intra-tracheal spray of 2 mg/kg LPS (dissolved in 40 μl 0.9% saline) or 0.9% saline under anesthesia. […]

[9] = rebastinib 5 or 10 mg/kg i.v., LPS/D-GalN i.p. 5 hr

## 4-[4-[(5-tert-butyl-2-quinolin-6-ylpyrazol-3-yl)-carbamoylamino]-3-fluorophenoxy]-N-methylpyridine-2-carboxamide [rebastinib]
LPS-primed d-THP-1 cells [1]
  nigericin-induced pyroptotic LDH release: inhibited
LPS-primed d-THP-1 cells [1]; listed as present compound
  nigericin-induced pyroptotic LDH release: inhibitory effect
[2]; 5 hr
  acute liver failure: liver bleeding and inflammation (gross liver morphology): attenuated
[2]; 5 hr, listed as present compound
  acute liver failure: liver bleeding and inflammation (gross liver morphology): significant attenuation
[2]; rebastinib 5 or 10 mg/kg i.v. 1 hr before LPS/D-GalN i.p., 5 hr
  liver tissue weight: decreases
[2]; [9]
  serum ALT level: decreased significantly
  serum AST level: decreased significantly
  serum CRE level: decreased significantly
  serum LDH level: decreased significantly
[2]; rebastinib 5 or 10 mg/kg i.v., LPS/D-GalN i.p. 5 hr, clinical chemistry analyzer
  serum biochemical parameters (AST, ALT, BUN, CRE, LDH): attenuated
LPS-primed d-THP-1 cells [3]
  nigericin-induced IL-1β secretion: inhibited
LPS-primed d-THP-1 cells [3]; listed as present compound
  nigericin-induced IL-1β secretion: significantly reduced
LPS-primed d-THP-1 cells [4]
  MSU-induced IL-1β secretion: inhibited
LPS-primed d-THP-1 cells [4]; listed as present compound
  MSU-induced IL-1β secretion: suppressed
LPS-primed d-THP-1 cells [5]
  nigericin-induced IL-18 secretion: inhibited
LPS-primed d-THP-1 cells [5]; listed as present compound
  nigericin-induced IL-18 secretion: significantly reduced
LPS-primed d-THP-1 cells [6]
  imiquimod-induced IL-1β secretion: inhibited
LPS-primed d-THP-1 cells [6]; listed as present compound
  imiquimod-induced IL-1β secretion: suppressed
LPS-primed d-THP-1 cells [7]
  nigericin-induced pyroptotic cell death (swelling, bubbles, lysis): inhibited
LPS-primed d-THP-1 cells [7]; listed as present compound
  nigericin-induced pyroptotic cell death (swelling, bubbles, lysis): significantly reduced
LPS-primed d-THP-1 cells [8]
  nigericin-induced ASC speck formation: inhibited
LPS-primed d-THP-1 cells [8]; listed as present compound
  nigericin-induced ASC speck formation: greatly reduced
LPS-induced ALI in mice
  LPS-induced lung morphology change and infiltration (H&E): significantly attenuated
LPS-induced ALI in mice; listed as Rebastinib
  LPS-induced lung morphology change and infiltration (H&E): attenuated

## COc1ccc(Cl)cc1C(=O)NCCc1ccc(S(=O)(=O)NC(=O)NC2CCCCC2)cc1 [glibenclamide]
LPS-primed d-THP-1 cells [7]
  nigericin-induced pyroptotic cell death (swelling, bubbles, lysis): significantly reduced
LPS-primed d-THP-1 cells [8]
  nigericin-induced ASC speck formation: greatly reduced
